{"source": "patent US20050272737A1", "about": "“Combined treatment with irinotecan and an epidermal growth factor receptor kinase inhibitor” (priority 2004, published 2005)", "key": {"[1]": {"details": "cited from earlier work"}, "[2]": {"tested_on": "LoVo colorectal xenograft", "assay": "Anti-tumor efficacy in LoVo human colorectal xenograft in nude mice (study 525; also experiment 540)", "type": "in vivo, female athymic nu/nu mice", "experimental": "(§1) In this study, the drugs were combined at their respective maximum tolerated dose (MTD) and also combined together at sub-optimal doses. All doses included in the combination groups were also included in the study as monotherapy arms. The attempt was to achieve maximum efficacy/regression without increased toxicity.\n(§2) The health of all animals was determined daily by gross observation of experimental animals and by the analyses of blood samples of sentinel animals that were housed on the shared shelf racks. All animals were allowed to acclimate and recover from any shipping related stress for one week prior to experimental manipulation. […] Cages, bedding and water bottles were autoclaved before use and were changed weekly. […] All in vivo experiments were performed in accordance with protocols approved by the Roche Animal Care and Use Committee (RACUC). The Roche animal care facility is fully accredited by the American Association for the Accreditation of Lab Animal Care (AAALAC).\nLoVo cells were grown in F-12K+20% FBS (not heat inactivated) and harvested. 5×10^6 cells/0.2 ml/mouse in PBS (Phosphate Buffered Saline) were implanted subcutaneously in the right flank on Jul.\n(§3) Formulated compound was made up in one batch for the entire 3 week study.\n(§4) An aliquot of the stock vial solutions was taken for each dose group representing the drug needed for that group for the entire study duration and diluted out further with sterile saline, to provide a solution that renders a 0.2 ml dosing volume for each individual animal.\nFor study […], animals were randomized according to tumor volume on day 17 post tumor implantation so that all groups had similar starting mean tumor volumes of 100-150 mm^3.\n[…] Treatment ended on Aug. […] No end of study drug exposure analysis was performed on this study.\n(§5) Tumor measurements and mouse weights were taken two-three times per week for LoVo and HCT116. All animals were individually followed throughout the experiment.\n(§6) Efficacy data was graphically represented as the mean tumor volume+standard error of the mean (SEM).\n(§7) Tumor volume (in cubic millimeters) was calculated using the ellipsoid formula: (D×(d2))/2 • where ‘D’ represents the large diameter of the tumor, and ‘d’ represents the small diameter.\n(§8) In some cases, tumor regression and/or percent change in tumor volume was calculated using the formula: ((T−T0)/T0)×100 • where ‘T’ represents mean tumor volume of the treated group at a particular day and ‘T0’ represents mean tumor volume of the same treated group at initiation of treatment.\n(§9) Statistical analysis was determined by the rank sum test and One Way Anova and a post-hoc Bonferroni t-test (SigmaStat, version 2.0, Jandel Scientific, San Francisco, Calif.)."}, "[3]": {"tested_on": "HCT116 colorectal xenograft", "assay": "Anti-tumor efficacy in HCT116 human colorectal xenograft in nude mice (study 531)", "type": "in vivo, female athymic nu/nu mice", "details": "for classification of the HCT116 tumor line towards the agent: therapeutic doses: Tarceva 100 mg/kg qd, Iressa 150 mg/kg", "experimental": "as §1, §2\nHCT-116 cells were grown in McCoy's 5A Modified Medium +10% FBS and harvested. 3×10^6 cells/0.2 ml/mouse in PBS (Phosphate Buffered Saline) were implanted subcutaneously in the right flank on Jul.\nas §3, §4\n(§10) Tarceva™ was administered using a 1 cc syringe and 18-gauge gavage needles (0.2 ml/animal). […] All groups were treated q4d for 3 weeks (total 6 injections). Treatment ended on Aug. […] No end of study of drug exposure analysis was performed on this study.\nas §5, §6, §7, §8, §9"}, "[4]": {"details": "study 531; for toxicity and unscheduled deaths: single agent groups and low dose combination (25/15 mg/kg)", "experimental": "as §2, §10\nA full necropsy was performed on five mice per treatment from all remaining groups, Whole blood was also collected for hematology and clinical chemistry. Tumors were removed and fixed in zinc formalin and subsequently embedded in paraffin. Immunohistochemistry can be performed on these sections to assess apoptosis via TUNEL and proliferative index via Ki67. Necrosis can also be assessed on H&E stained sections.\nas §5\nWeight loss was graphically represented as percent change in mean group body weight, using the formula: ((W−W0)/W0)×100 • where ‘W’ represents mean body weight of the treated group at a particular day, and ‘W0’ represents mean body weight of the same treated group at initiation of treatment."}, "in vivo": {"assay": "in vivo", "experimental": "The dose of 60 mg/kg was selected as the rational maximum therapeutic dose based on investigator experience with this agent."}, "[5]": {"assay": "Toxicity (body weight, deaths, clinical signs, necropsy) in LoVo study 525", "type": "in vivo, female nude mice", "details": "Tarceva 100 mg/kg monotherapy", "experimental": "Female nude mice (10/group), obtained from Charles River Laboratories (Wilmington, Mass.) at an age of 4-6 weeks, and were used when they were ˜10-12 weeks old and weighed ˜23-25 grams.\nFor efficacy study 525, treatment began on Jul. […] Treatment ended on Aug. 19, 2002 (Day 38 post-tumor implant). No end of study drug exposure analysis was performed on this study.\nAll animals were individually followed throughout the experiment."}, "[6]": {"tested_on": "LoVo colorectal xenograft", "assay": "Anti-tumor efficacy in LoVo human colorectal xenograft in nude mice (study 525; also experiment 540)", "type": "in vivo, female athymic nu/nu mice", "remark": "listed apart in the source"}, "[7]": {"details": "Tarceva 25 mg/kg qd monotherapy, study 525, day 38"}}, "note": "Like-named read-outs stand apart in the source and are kept apart here.", "data": [{"smiles": "O=c1[nH]cc(F)c(=O)[nH]1", "note": "[5-fluorouracil]", "values": [{"measurement": "response rate", "setting": "[1]; single-agent treatment, advanced colorectal cancer", "value": "about 10%"}]}, {"smiles": "CCc1c2c(nc3ccc(OC(=O)N4CCC(N5CCCCC5)CC4)cc13)-c1cc3c(c(=O)n1C2)COC(=O)[C@]3(O)CC", "note": "[CPT-11]", "values": [{"measurement": "Tumor growth inhibition (TGI)", "setting": "[2]; CPT-11 15 mg/kg q4d iv monotherapy, study 525", "value": 93, "unit": "%"}, {"measurement": "tumors partially regressed", "setting": "[2]; CPT-11 60 mg/kg q4d iv monotherapy, study 525", "value": 90, "unit": "%"}, {"measurement": "Tumor growth inhibition (TGI)", "setting": "[2]; CPT-11 60 mg/kg q4d iv monotherapy, study 525, day 38", "value": "> 100", "unit": "%"}, {"measurement": "Tumor growth inhibition (TGI)", "setting": "[3]; CPT-11 15 mg/kg q4d iv monotherapy, study 531", "value": 73, "unit": "%"}, {"measurement": "tumors partially regressed", "setting": "[3]; CPT-11 60 mg/kg q4d iv monotherapy, study 531", "value": 70, "unit": "%"}, {"measurement": "Tumor growth inhibition (TGI)", "setting": "[3]; CPT-11 60 mg/kg q4d iv monotherapy, study 531, day 35", "value": "> 100", "unit": "%"}, {"measurement": "toxicity and unscheduled deaths", "setting": "[4]", "value": "No toxicity or unscheduled deaths"}, {"measurement": "MTD at 3 weeks", "setting": "in vivo; female, mouse, in vivo, iv", "value": 66, "unit": "mg/kg"}]}, {"smiles": "COc1cc2ncnc(Nc3ccc(F)c(Cl)c3)c2cc1OCCCN1CCOCC1", "note": "[Iressa™]", "values": [{"measurement": "classification of the HCT116 tumor line towards the agent", "setting": "[3]", "value": "refractory"}, {"measurement": "toxicity and unscheduled deaths", "setting": "[4]", "value": "No toxicity or unscheduled deaths"}]}, {"smiles": "C#Cc1cccc(Nc2ncnc3cc(OCCOC)c(OCCOC)cc23)c1", "note": "[Tarceva™, [6,7-bis(2-methoxyethoxy)-4-quinazolin-4-yl]-(3-ethynylphenyl) amine]", "values": [{"measurement": "Tumor growth inhibition (TGI)", "setting": "[2]; Tarceva 100 mg/kg, experiment 540", "value": 98, "unit": "%"}, {"measurement": "tumors partially regressed", "setting": "[2]; Tarceva 100 mg/kg, experiments 525 and 540", "value": "40-60%"}, {"measurement": "mice showing partial regressions (PR)", "setting": "[2]; erlotinib 100 mg/kg, fraction of mice", "value": "6/10"}, {"measurement": "single agent tumor efficacy / tumor growth inhibition", "setting": "[3]; Tarceva 25 mg/kg qd monotherapy, study 531, day 35", "value": "not seen"}, {"measurement": "single agent tumor efficacy / tumor growth inhibition", "setting": "[3]; Tarceva 25 mg/kg qd monotherapy, study 531, day 35, listed as erlotinib", "value": "did not render significant tumor growth inhibition"}, {"measurement": "single agent tumor efficacy / tumor growth inhibition", "setting": "[3]; Tarceva 100 mg/kg qd monotherapy, study 531, day 35 post tumor implant", "value": "not seen"}, {"measurement": "single agent tumor efficacy / tumor growth inhibition", "setting": "[3]; Tarceva 100 mg/kg qd monotherapy, study 531, day 35 post tumor implant, listed as erlotinib", "value": "did not render significant tumor growth inhibition"}, {"measurement": "classification of the HCT116 tumor line towards the agent", "setting": "[3]", "value": "refractory"}, {"measurement": "skin finding", "setting": "[5]", "value": "classic reddening of the skin"}, {"measurement": "skin finding", "setting": "[4]; Tarceva 100 mg/kg monotherapy", "value": "classic reddening of the skin"}, {"measurement": "toxicity and unscheduled deaths", "setting": "[4]", "value": "No toxicity or unscheduled deaths"}, {"measurement": "tolerability", "setting": "in vivo; Tarceva 150 mg/kg once a day in CMC/Tween for 3 weeks, previous efficacy studies", "value": "tolerated well"}, {"measurement": "tolerability", "setting": "in vivo; Tarceva 200 mg/kg qd, CMC/Tween, MTD study", "value": "toxicity"}, {"measurement": "MTD at 14 days", "setting": "in vivo; female, mouse, in vivo", "value": 100, "unit": "mg/kg"}, {"measurement": "tumor regression", "setting": "[6]; Tarceva 25 mg/kg qd monotherapy, study 525", "value": "no regression"}, {"measurement": "% T/C", "setting": "[6]; [7]", "value": 21, "unit": "%"}, {"measurement": "Tumor growth inhibition (TGI)", "setting": "[6]; [7]", "value": 79, "unit": "%"}, {"measurement": "Tumor growth inhibition", "setting": "[6]; Tarceva 25 mg/kg qd, experiments 525 and 540", "value": "53-79%"}, {"measurement": "tumors with partial regression", "setting": "[6]; Tarceva 100 mg/kg qd oral monotherapy, study 525", "value": 60, "unit": "%"}, {"measurement": "% T/C", "setting": "[6]; Tarceva 100 mg/kg qd oral monotherapy, study 525, day 38", "value": "−2", "unit": "%"}, {"measurement": "Tumor growth inhibition (TGI)", "setting": "[6]; Tarceva 100 mg/kg qd oral monotherapy, study 525, day 38 post tumor implant", "value": "> 100", "unit": "%"}]}, {"smiles": "O=C(O)C(=O)O.[NH-][C@@H]1CCCC[C@H]1[NH-].[Pt+2]", "note": "[oxaliplatin]", "values": [{"measurement": "response rate", "setting": "[1]; combined with 5-FU and leucovorin, first-line treatment for colorectal cancer", "value": "25-40%"}]}]}
